Data as given in patent US20160272617A1, “SUBSTITUTED PHENYLALANINE DERIVATIVES” (BAYER PHARMA AKTIENGESELLSCHAFT, priority 2013, published 2016).
Where a name gives a salt, the structure may show the parent alone.

Columns and labels:
human plasmin = target: T1, human plasmin (Homo sapiens, UniProt P00747); assay: Measurement of plasmin inhibition (fluorogenic peptide substrate MeOSuc-Ala-Phe-Lys-AMC); format: biochemical; details: plasmin from Kordia, 15 min preincubation, 30 min at 22° C., fluorescence
T1 construct: purchased Kordia
Experimental: The plasmin inhibition of the inventive substances is determined using a biochemical test system which utilizes the reaction of a peptidic plasmin substrate to determine the enzymatic activity of human plasmin. Here, plasmin cleaves from the peptic plasmin substrate the C-terminal aminomethylcoumarin (AMC), the fluorescence of which is measured. The determinations are carried out in microtitre plates.
Test substances are dissolved in dimethyl sulphoxide and serially diluted in dimethyl sulphoxide (3000 μM to 0.0078 μM; resulting final concentrations in the test: 50 μM to 0.00013 μM). In each case 1 μl of the diluted substance solutions are placed into the wells of white microtitre plates from Greiner (384 wells). Subsequently, the following are added successively: 20 μl of assay buffer (50 mmol/Tris buffer pH 7.4; 100 mmol/l sodium chloride; 5 mmol/calcium chloride; 0.1% bovine serum albumin) and 20 μl of plasmin from Kordia (0.3 μg/ml in assay buffer) are then added successively. After 15 min of incubation, the enzyme reaction is started by addition of 20 μl of the plasmin substrate MeOSuc-Ala-Phe-Lys-AMC dissolved in assay buffer (150 μM in assay buffer) from Bachem, the mixture is incubated at room temperature (22° C.) for 30 min and fluorescence is then measured (excitation: 360 nm, emission: 460 nm). The measured emissions of the test batches with test substance are compared to those of control batches without test substance (only dimethyl sulphoxide instead of test substance in dimethyl sulphoxide), and the IC50 values are calculated from the concentration/activity relationships.

human factor XIa = target: T2, human factor XIa (Homo sapiens, UniProt P03951); assay: Measurement of FXIa inhibition (fluorogenic peptide substrate Boc-Glu(OBzl)-Ala-Arg-AMC); format: biochemical; details: factor XIa from Kordia, 15 min preincubation, 30 min at 22° C., fluorescence
T2 construct: purchased Kordia
In short: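 Released AMC fluorescence (360/460 nm) read after 30 min at 22 °C. The reaction was started with Boc-Glu(OBzl)-Ala-Arg-AMC (10 μM stock) after a 15 min preincubation of the enzyme (0.45 nM stock) with compound (final 50 μM to 0.00013 μM).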

human and animal plasma = assay: Determination of anticoagulatory activity: activated partial thromboplastin time (aPTT) in plasma; details: concentration of test substance which brings about a 1.5-fold extension of the aPTT; plasma species not given
In short: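 Citrated plasma (1:9, 0.11 M citrate; 4000 g, 15 min) from human or animal blood incubated with test compound and cephalin/kaolin PTT reagent for 3 min at 37° C.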

T1 sequence (P00747 581-810 limits assumed): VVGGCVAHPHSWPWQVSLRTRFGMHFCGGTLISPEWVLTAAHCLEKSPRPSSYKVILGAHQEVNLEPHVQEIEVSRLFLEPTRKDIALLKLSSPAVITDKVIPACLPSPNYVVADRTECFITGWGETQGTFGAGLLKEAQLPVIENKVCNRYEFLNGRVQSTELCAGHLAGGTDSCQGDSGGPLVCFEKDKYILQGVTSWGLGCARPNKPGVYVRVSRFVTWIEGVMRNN
T1 sequence (P00747 97-580 partner limits assumed): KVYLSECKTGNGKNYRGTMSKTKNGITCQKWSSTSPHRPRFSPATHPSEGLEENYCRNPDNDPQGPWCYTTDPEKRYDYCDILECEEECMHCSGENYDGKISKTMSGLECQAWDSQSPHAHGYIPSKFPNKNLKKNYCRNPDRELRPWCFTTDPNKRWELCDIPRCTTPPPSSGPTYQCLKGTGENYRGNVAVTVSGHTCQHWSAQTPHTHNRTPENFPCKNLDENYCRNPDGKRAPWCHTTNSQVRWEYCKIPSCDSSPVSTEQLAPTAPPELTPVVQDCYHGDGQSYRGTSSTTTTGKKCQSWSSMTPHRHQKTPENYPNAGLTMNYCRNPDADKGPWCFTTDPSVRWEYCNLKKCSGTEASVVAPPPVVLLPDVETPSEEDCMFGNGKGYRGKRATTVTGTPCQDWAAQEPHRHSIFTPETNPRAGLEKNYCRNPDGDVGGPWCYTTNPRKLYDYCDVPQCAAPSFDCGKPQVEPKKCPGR
T2 sequence (P03951 388-625 limits assumed): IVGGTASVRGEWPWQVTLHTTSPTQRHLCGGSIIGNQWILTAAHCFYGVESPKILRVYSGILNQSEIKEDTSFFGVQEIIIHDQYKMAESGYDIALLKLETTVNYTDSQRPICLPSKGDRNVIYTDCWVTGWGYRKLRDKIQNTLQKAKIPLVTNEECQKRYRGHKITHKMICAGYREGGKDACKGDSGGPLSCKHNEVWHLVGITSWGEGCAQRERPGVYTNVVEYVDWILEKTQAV
T2 sequence (P03951 19-387 partner limits assumed): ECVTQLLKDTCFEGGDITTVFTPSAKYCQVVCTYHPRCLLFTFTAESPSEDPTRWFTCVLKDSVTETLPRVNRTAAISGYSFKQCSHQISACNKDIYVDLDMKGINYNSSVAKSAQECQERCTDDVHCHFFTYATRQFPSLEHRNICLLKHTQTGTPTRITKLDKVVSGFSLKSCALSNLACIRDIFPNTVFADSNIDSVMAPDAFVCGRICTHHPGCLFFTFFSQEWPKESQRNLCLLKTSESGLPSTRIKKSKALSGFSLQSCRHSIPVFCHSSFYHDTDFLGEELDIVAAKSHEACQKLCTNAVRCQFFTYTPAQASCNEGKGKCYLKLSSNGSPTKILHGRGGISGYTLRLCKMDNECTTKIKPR

SMILES	IC50 (human plasmin)	IC50 (human factor XIa)	aPTT (human and animal plasma)
Cc1cc(C(=O)NC(C)C)ccc1-c1ccc(CC(NC(=O)[C@H]2CC[C@H](CN)CC2)C(=O)Nc2ccc3cn[nH]c3c2)cc1 (mixture of isomers) [Example 21, 4′-[(2R,S)-2-({[trans-4-(Aminomethyl)cyclohexyl]carbonyl}amino)-3-(1H-indazol-6-ylamino)-3-oxopropyl]-N-isopropyl-2-methylbiphenyl-4-carboxamide hydrochloride (enantiomer mixture)]	1.1 nM	1.8 nM	–
Cc1cc(C(=O)NC(C)C)ccc1-c1ccc(C[C@H](NC(=O)[C@H]2CC[C@H](CN)CC2)C(=O)Nc2ccc(-c3nn[nH]n3)cc2)cc1 [Example 7, 4′-[(2S)-2-({[trans-4-(Aminomethyl)cyclohexyl]carbonyl}amino)-3-oxo-3-{[4-(2H-tetrazol-5-yl)phenyl]amino}propyl]-N-isopropyl-2-methylbiphenyl-4-carboxamide hydrochloride]	1.9 nM	1.7 nM	–
Cc1cc(C(=O)N2CCCC2)ccc1-c1ccc(C[C@H](NC(=O)[C@H]2CC[C@H](CN)CC2)C(=O)Nc2ccc(-c3nn[nH]n3)cc2)cc1 [Example 20, trans-4-(Aminomethyl)-N-[(2S)-3-[2′-methyl-4′-(pyrrolidin-1-ylcarbonyl)biphenyl-4-yl]-1-oxo-1-{[4-(2H-tetrazol-5-yl)phenyl]amino}propan-2-yl]cyclohexanecarboxamide]	5.7 nM	1.8 nM	–
Cc1cc(C(=O)NC(C)C)ccc1-c1ccc(C[C@H](NC(=O)[C@H]2CC[C@H](CN)CC2)C(=O)Nc2ccc(-c3nnc(C(F)(F)C(F)(F)C(=O)O)[nH]3)cc2)cc1 [Example 116, 3-{5-[4-({(2S)-2-({[trans-4-(Aminomethyl)cyclohexyl]carbonyl}amino)-3-[4′-(isopropylcarbamoyl)-2′-methylbiphenyl-4-yl]propanoyl}amino)phenyl]-4H-1,2,4-triazol-3-yl}-2,2,3,3-tetrafluoropropanoic acid hydrochloride]	4.4 nM	2 nM	0.57 µmol/L
Cc1cc(C(=O)N[C@H]2CCNC2)ccc1-c1ccc(C[C@H](NC(=O)[C@H]2CC[C@H](CN)CC2)C(=O)Nc2ccc(-c3nnc(C(F)(F)C(F)(F)C(=O)O)[nH]3)cc2)cc1 [Example 153, 3-[5-(4-{[(2S)-2-({[trans-4-(Aminomethyl)cyclohexyl]carbonyl}amino)-3-{2′-methyl-4′-[(3S)-pyrrolidin-3-ylcarbamoyl]biphenyl-4-yl}propanoyl]amino}phenyl)-4H-1,2,4-triazol-3-yl]-2,2,3,3-tetrafluoropropanoic acid hydrochloride]	–	1.8 nM	0.08 µmol/L
Cc1cc(C(=O)NC2C3CNCC32)ccc1-c1ccc(C[C@H](NC(=O)[C@H]2CC[C@H](CN)CC2)C(=O)Nc2ccc(-c3nnc(C(F)(F)C(F)(F)C(=O)O)[nH]3)cc2)cc1 (stereo partly drawn) [Example 154, 3-(5-[4-({(2S)-2-({[trans-4-(Aminomethyl)cyclohexyl]carbonyl}amino)-3-[4′-(3-azabicyclo[3.1.0]hex-6-ylcarbamoyl)-2′-methylbiphenyl-4-yl]propanoyl}amino)phenyl]-4H-1,2,4-triazol-3-yl}-2,2,3,3-tetrafluoropropanoic acid hydrochloride]	–	2.8 nM	0.09 µmol/L
Cc1cc(C(=O)NC2CCCNC2=O)ccc1-c1ccc(C[C@H](NC(=O)[C@H]2CC[C@H](CN)CC2)C(=O)Nc2ccc(-c3nnc(C(F)(F)C(F)(F)C(=O)O)[nH]3)cc2)cc1 (stereo partly drawn) [Example 155, 3-[5-(4-{[(2S)-2-({[trans-4-(Aminomethyl)cyclohexyl]carbonyl}amino)-3-{2′-methyl-4′-[(2-oxopiperidin-3-yl)carbamoyl]biphenyl-4-yl}propanoyl]amino}phenyl)-4H-1,2,4-triazol-3-yl]-2,2,3,3-tetrafluoropropanoic acid hydrochloride]	–	1 nM	0.16 µmol/L
Cc1cc(C(=O)N[C@@H]2CCCNC2=O)ccc1-c1ccc(C[C@H](NC(=O)[C@H]2CC[C@H](CN)CC2)C(=O)Nc2ccc(-c3nnc(C(F)(F)C(F)(F)C(=O)O)[nH]3)cc2)cc1 [Example 166, 3-[5-(4-{[(2S)-2-({[trans-4-(Aminomethyl)cyclohexyl]carbonyl}amino)-3-(2′-methyl-4′-{[(3R)-2-oxopiperidin-3-yl]carbamoyl}biphenyl-4-yl)propanoyl]amino}phenyl)-4H-1,2,4-triazol-3-yl]-2,2,3,3-tetrafluoropropanoic acid hydrochloride]	–	0.8 nM	0.09 µmol/L

Second part, led by results:

IC50 (human plasmin)	IC50 (human factor XIa)	SMILES	aPTT (human and animal plasma)
270 nM	2800 nM	Cc1cc(C(=O)NC(C)C)ccc1-c1ccc(C[C@@H](NC(=O)C2CCC(CN)CC2)C(=O)Nc2ccc3cn[nH]c3c2)cc1 (single isomer, unassigned; enantiomer 1) [Example 169]	–
1.3 nM	5.6 nM	Cc1cc(C(=O)NC(C)C)ccc1-c1ccc(C[C@H](NC(=O)C2CCC(CN)CC2)C(=O)Nc2ccc3cn[nH]c3c2)cc1 (single isomer, unassigned; enantiomer 2) [Example 170]	–
1.4 nM	1.3 nM	Cc1cc(C(=O)NC(C)C)ccc1-c1ccc(C[C@H](NC(=O)[C@H]2CC[C@H](CN)CC2)C(=O)Nc2ccc(-c3nn[nH]n3)c(F)c2)cc1 [Example 96, 4′-[(2S)-2-({[trans-4-(Aminomethyl)cyclohexyl]carbonyl}amino)-3-{[3-fluoro-4-(2H-tetrazol-5-yl)phenyl]amino}-3-oxopropyl]-N-isopropyl-2-methylbiphenyl-4-carboxamide hydrochloride]	0.5 µmol/L
0.74 nM	7.9 nM	Cc1cc(C(=O)NC2CCC2)ccc1-c1ccc(C[C@H](NC(=O)[C@H]2CC[C@H](CN)CC2)C(=O)Nc2cc(Cl)c3oc(=O)[nH]c3c2)cc1 [Example 102, 4′-{(2S)-2-({[trans-4-(Aminomethyl)cyclohexyl]carbonyl}amino)-3-[(7-chloro-2-oxo-2,3-dihydro-1,3-benzoxazol-5-yl)amino]-3-oxopropyl}-N-cyclobutyl-2-methylbiphenyl-4-carboxamide hydrochloride]	–
–	5.3 nM	Cc1cc(C(=O)NC2CCNCC2)ccc1-c1ccc(C[C@H](NC(=O)[C@H]2CC[C@H](CN)CC2)C(=O)Nc2ccc(-c3nnc(CCC(=O)O)[nH]3)cc2)cc1 [Example 152, 3-{(5-[4-({(2S)-2-({[trans-4-(Aminomethyl)cyclohexyl]carbonyl}amino)-3-[2′-methyl-4′-(piperidin-4-ylcarbamoyl)biphenyl-4-yl]propanoyl}amino)phenyl]-4H-1,2,4-triazol-3-yl}propanoic acid hydrochloride]	0.7 µmol/L
0.58 nM	7.1 nM	Cc1cc(C(=O)NC(C)C)ccc1-c1ccc(C[C@H](NC(=O)[C@H]2CC[C@H](CN)CC2)C(=O)Nc2cc(Cl)c3oc(=O)[nH]c3c2)cc1 [Example 156, 4′-{(2S)-2-({[trans-4-(Aminomethyl)cyclohexyl]carbonyl}amino)-3-[(7-chloro-2-oxo-2,3-dihydro-1,3-benzoxazol-5-yl)amino]-3-oxopropyl}-N-isopropyl-2-methylbiphenyl-4-carboxamide hydrochloride]	–
1.3 nM	5.2 nM	Cc1cc(C(=O)NC2CCC2)ccc1-c1ccc(C[C@H](NC(=O)[C@H]2CC[C@H](CN)CC2)C(=O)Nc2ccc3cc(C(=O)O)[nH]c3c2)cc1 [Example 160, 6-({(2S)-2-({[trans-4-(Aminomethyl)cyclohexyl]carbonyl}amino)-3-[4′-(cyclobutylcarbamoyl)-2′-methylbiphenyl-4-yl]propanoyl}amino)-1H-indole-2-carboxylic acid hydrochloride]	–
6.7 nM	6.1 nM	Cc1cc(C(=O)NC(C)C)ccc1-c1ccc(C[C@H](NC(=O)[C@H]2CC[C@H](CN)CC2)C(=O)Nc2cc(C(=O)O)c3cn[nH]c3c2)cc1 [Example 161, 6-({(2S)-2-({[trans-4-(Aminomethyl)cyclohexyl]carbonyl}amino)-3-[4′-(isopropylcarbamoyl)-2′-methylbiphenyl-4-yl]propanoyl}amino)-1H-indazole-4-carboxylic acid hydrochloride]	–
1.9 nM	1.4 nM	CNC(=O)C(F)(F)C(F)(F)c1nnc(-c2ccc(NC(=O)[C@H](Cc3ccc(-c4ccc(C(=O)NC(C)C)cc4C)cc3)NC(=O)[C@H]3CC[C@H](CN)CC3)cc2)[nH]1 [Example 165, 4′-({(2S)-2-({[trans-4-(Aminomethyl)cyclohexyl]carbonyl}amino)-3-oxo-3-[(4-{5-[1,1,2,2-tetrafluoro-3-(methylamino)-3-oxopropyl]-4H-1,2,4-triazol-3-yl}phenyl)amino]propyl}-N-isopropyl-2-methylbiphenyl-4-carboxamide hydrochloride]	–
